# Results as given in patent US20040033252A1, “Agents for recoverying from or preventing fatigue in the central nerve system and foods for recovering from or preventing fatigue” (priority 2000, published 2004).
# Experiments:
# [1] = tested on: tryptophan-deficient rats; test: Treadmill running test to exhaustion in tryptophan-deficient rats given tryptophan-added food (Evaluation Test 3); format: in vivo, rat
# Text: Three-week-old female rats of Sprague-Dawley-type (each rat: 50 g) were raised for one month to a weight of 200 g [fed with normal food of AIN93G for one month (standard refined feed, made by Oriental Yeast, Co., Ltd., with the tryptophan being contained at 2.3 g/kg)], and from this time on, these were fed with the tryptophan-deficient food (adjusted feed in which only the tryptophan was removed from the above-mentioned AIN93G, with corn starch being used for compensating for the corresponding portion) for 16 days to form the tryptophan-deficient rats. Amino acids, contained in the normal food AIN93G, were respectively manufactured by AJINOMOTO CO., INC., and the respective contents (g) in 1 kg of feed were: alanine 5.6, arginine 6.8, aspartic acid 13.1, cystine 3.9, glutamic acid 39.6, glycine 3.4, histidine 5.6, isoleucine 10.1, leucine 17.5, lysine 14.9, methionine 5.6, phenyl alanine 9.5, proline 21.6, serine 9.7, threonine 7.7, tryptophan 2.3 (only contained in the tryptophan-containing food), tyrosine 10.4, and valine 12.6 (each of the amino acids having a purity of 100%). These rats were subjected to training for 30 minutes at a speed of 20 m/min (inclination: 7%) by treadmill running practice, three times a week, which started at the age of 3 weeks old, and lasted for 2 months. After the training had been completed, the rats were subjected to running loads on the treadmill at a speed of 20 m/min (inclination: 7%) up to exhaustion, and the running time was evaluated as the fatigue tests shown below. […] The evaluation was made by using inter-group comparisons (with paired t-test) of a Student's t-test.
# To the tryptophan-deficient rats that had been subjected to the above-mentioned training were respectively given tryptophan-added food (AIN93G to which 2.3 g/kg of the tryptophan was added), and were then given physiological saline, a mixture of the BCH and the BCAA, the BCH and the BCAA, and comparison tests were carried out among the four groups. […]
# [2] = tested on: striatal synaptosome of analbuminemia rats; test: Tryptophan and metabolites in striatal synaptosome immediately after exhaustion (HPLC, electrochemical detector); format: in vivo, rat; details: for Concentration of 5-HIAA in striatal synaptosome / Concentration of 5-HT in striatal synaptosome / Concentration of 5-HTP in striatal synaptosome / Concentration of tryptophan in striatal synaptosome: NAR, immediately after exhaustion, mean ± SEM
# Method: The head of each of the rats was sacrificed by decapitation immediately after the training so that the striatal synaptosome was separated, and tryptophan(Trp), 5-hydroxytryptophan (5-HTP), 5-hydroxytryptamin (5-HT) and 5-hydroxyindoleacetic acid (5-HIAA) were measured by high-performance liquid chromatography using an electrochemical detector. Moreover, the protein level in the P2 fraction was measured in accordance with the method of Lowry et al. (J. Protein measurements with the Folin phenol reagent, J. Biol. Chem. 193: 265-275; 1951).
# (§1) These measured data were obtained by a analysis of variance (ANOVA) in one-way layout of Fisher's PLSD test by using multiple comparisons and repeated measurements, based upon the standard error. Next, the data were classified based upon running times, and analyzed by the Student's t-test based upon observation with paired t-test in the total effects of the BCAA and BCH treatment groups.
# analbuminemia rats = test: Treadmill running test to exhaustion in analbuminemia rats (fatigue test); format: in vivo, rat; details: NAR; for Running time up to exhaustion: i.p., BCH 8 mg/kg and BCAA 250 mg/kg 1 h before running, albumin 1 g/kg 1.5 h before, mean ± SEM
# Method: Three-week-old female analbuminemia rats (Japan SLC) that genetically lacked albumin in their blood plasma, which had been raised under light and dark cycles of 7:00 to 19:00 (light cycle) at room temperature 22° C., were subjected to the fatigue tests. Prior to the fatigue tests, the analbuminemia rats were subjected to training (20 m/min, 7% inclination) for 30 minutes, four times a week, during a predetermined period of time in 13:00 to 15:00, and this training lasted for four weeks so as to adapt them to running on the treadmill. After the training had been completed, all the analbuminemia rats (weight 210 to 255 g) were subjected to exhaustion tests on the treadmill under the same conditions, and time up to an exhaustion state was measured.
# The rats, which were divided into four groups, were respectively treated with physiological saline (made by Otsuka Pharmaceutical Co., Ltd “0.9% physiological saline”), the BCH (made by Sigma K.K., NoA7902), the BCAA and albumin (made by Sigma K.K. A-6272 (Fraction V)). The dose of physiological saline was set to 5 ml/kg, that of the BCH was 8 mg/kg and that of the BCAA was 250 mg/kg, and these were given into the abdominal cavity one hour prior to the start of the running tests. Here, BCH, BCAA and albumin were respectively dissolved in physiological saline, and then administered. The dose of albumin was set to 1 g/kg, and given into the abdominal cavity one and half hours prior to the start of […]. […] These doses were determined so as to obtain sufficient effects, and in the case of actual doses to the human being, these can be changed appropriately depending on various factors.
# as §1
# [3] = tested on: tryptophan-deficient rats; test: Treadmill running test to exhaustion in tryptophan-deficient rats (Evaluation Test 2); format: in vivo, rat; details: i.p. 1 h before running, BCH 150 mg/kg, BCAA 250 mg/kg, mean ± standard error
# Text: Three-week-old female rats of Sprague-Dawley-type (each rat: 50 g) were raised for one month to a weight of 200 g [fed with normal food of AIN93G for one month (standard refined feed, made by Oriental Yeast, Co., Ltd., with the tryptophan being contained at 2.3 g/kg)], and from this time on, these were fed with the tryptophan-deficient food (adjusted feed in which only the tryptophan was removed from the above-mentioned AIN93G, with corn starch being used for compensating for the corresponding portion) for 16 days to form the tryptophan-deficient rats. Amino acids, contained in the normal food AIN93G, were respectively manufactured by AJINOMOTO CO., INC., and the respective contents (g) in 1 kg of feed were: alanine 5.6, arginine 6.8, aspartic acid 13.1, cystine 3.9, glutamic acid 39.6, glycine 3.4, histidine 5.6, isoleucine 10.1, leucine 17.5, lysine 14.9, methionine 5.6, phenyl alanine 9.5, proline 21.6, serine 9.7, threonine 7.7, tryptophan 2.3 (only contained in the tryptophan-containing food), tyrosine 10.4, and valine 12.6 (each of the amino acids having a purity of 100%). […] After the training had been completed, the rats were subjected to running loads on the treadmill at a speed of 20 m/min (inclination: 7%) up to exhaustion, and the running time was evaluated as the fatigue tests shown below. […]
# rats = details: tryptophan 1 mM/30 min continuously injected into the brain; cited from earlier work
Compound,"Running time of single rats that have not reached exhaustion ([1]; BCH only-administration, two cases)","Running time up to exhaustion ([1]; tryptophan-deficient rats given tryptophan-added food, doses as in evaluation test 2, i.p. 1 h before, mean ± standard error, values >542 set as 542)","Running-time difference versus physiological saline group (average-value comparison) ([1]; tryptophan-deficient rats given tryptophan-containing food, not statistically significant)","Change in uptake of 5-HTP into striatal synaptosome versus physiological saline group ([2]; BCAA and BCH treated groups totaled, group B (time to exhaustion 190 to 271 minutes), p<0.025)","Change in uptake of tryptophan into striatal synaptosome versus physiological saline group ([2]; BCAA and BCH treated groups totaled, group B (time to exhaustion 190 to 271 minutes), p<0.05)",Concentration of 5-HIAA in striatal synaptosome [2],Concentration of 5-HT in striatal synaptosome [2],Concentration of 5-HTP in striatal synaptosome [2],Concentration of tryptophan in striatal synaptosome [2],Extension of running time relative to physiological saline (analbuminemia rats; from Table 1),Running time up to exhaustion (analbuminemia rats),Running time up to exhaustion [3],Onset of fatigue in the central nervous system or muscles (rats)
"NC1(C(=O)O)CC2CCC1C2 (stereo not drawn) [BCH, 2-aminobicyclo-[2,2,1]-heptane-2-carboxylic acid]",524 minutes and not less than 524 minutes,428 ± 45 min,approximately 40 minutes,−23%,−19%,3.58 ± 0.21 pmol/mg protein,5.20 ± 0.79 pmol/mg protein,1.25 ± 0.17 pmol/mg protein,53.43 ± 10.50 pmol/mg protein,approximately twice as long,188 ± 33 min,308 ± 22 min,–
N[C@@H](Cc1c[nH]c2ccccc12)C(=O)O [tryptophan],–,–,–,–,–,–,–,–,–,–,–,–,exhibit the fatigue in the central nervous system or muscles in very early stage
Albumin: albumin made by Sigma K.K. A-6272 (Fraction V),–,–,–,–,–,3.30 ± 0.06 pmol/mg protein,5.00 ± 0.47 pmol/mg protein,1.45 ± 0.18 pmol/mg protein,52.41 ± 8.97 pmol/mg protein,–,96 ± 22 min,–,–
